Source: ChEMBL document CHEMBL5380860, “Design, Synthesis, and Antitumor Activity of Potent and Selective EGFR L858R/T790M Inhibitors and Identification of a Combination Therapy to Overcome Acquired Resistance in Models of Non-small-cell Lung Cancer” (J Med Chem, 2023)
Activity calls are given as the source filed them. The rule behind the calls is not given here.

Experiments:
NCI-H1975 [1] = experiment: Antitumor activity against human NCI-H1975 cells xenografted in BALB/c mouse assessed as tumor regression at 10 mg/kg/day, po; assay type: functional, organism-based
[2] = target: T1, Tyrosine-protein kinase Tec (Homo sapiens) (UniProt P42680); experiment: Inhibition of human wild type partial length TEC kinase (L341 to D620 residues) expressed in bacterial expression system assessed as residual activity at 1 uM by KINOMEscan analysis
T1 sequence (whole entry): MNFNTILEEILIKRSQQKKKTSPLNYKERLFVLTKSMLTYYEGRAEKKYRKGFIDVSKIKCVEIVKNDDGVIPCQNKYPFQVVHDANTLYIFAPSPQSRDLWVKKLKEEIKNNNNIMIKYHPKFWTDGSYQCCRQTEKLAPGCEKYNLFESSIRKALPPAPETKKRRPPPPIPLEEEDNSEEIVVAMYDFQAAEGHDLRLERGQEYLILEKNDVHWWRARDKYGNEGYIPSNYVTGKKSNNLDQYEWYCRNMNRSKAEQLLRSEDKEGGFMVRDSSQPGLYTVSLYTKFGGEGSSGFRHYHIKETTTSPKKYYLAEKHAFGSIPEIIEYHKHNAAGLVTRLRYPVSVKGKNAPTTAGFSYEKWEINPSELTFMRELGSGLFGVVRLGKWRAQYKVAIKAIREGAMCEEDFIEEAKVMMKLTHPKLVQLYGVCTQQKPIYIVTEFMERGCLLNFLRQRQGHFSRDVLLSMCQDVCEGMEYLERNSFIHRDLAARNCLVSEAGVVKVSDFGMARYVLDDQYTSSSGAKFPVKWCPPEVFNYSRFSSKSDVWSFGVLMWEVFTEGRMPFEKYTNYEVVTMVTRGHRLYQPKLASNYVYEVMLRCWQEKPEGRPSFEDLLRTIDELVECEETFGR

[3] = target: T2, Epidermal growth factor receptor (Homo sapiens, UniProt P00533); experiment: Inhibition of human wild type partial length EGFR (R669 to V1011 residues) expressed in bacterial expression system by KINOMEscan analysis; assay type: toxicity
T2 sequence (P00533 whole entry, the tested form may be a part): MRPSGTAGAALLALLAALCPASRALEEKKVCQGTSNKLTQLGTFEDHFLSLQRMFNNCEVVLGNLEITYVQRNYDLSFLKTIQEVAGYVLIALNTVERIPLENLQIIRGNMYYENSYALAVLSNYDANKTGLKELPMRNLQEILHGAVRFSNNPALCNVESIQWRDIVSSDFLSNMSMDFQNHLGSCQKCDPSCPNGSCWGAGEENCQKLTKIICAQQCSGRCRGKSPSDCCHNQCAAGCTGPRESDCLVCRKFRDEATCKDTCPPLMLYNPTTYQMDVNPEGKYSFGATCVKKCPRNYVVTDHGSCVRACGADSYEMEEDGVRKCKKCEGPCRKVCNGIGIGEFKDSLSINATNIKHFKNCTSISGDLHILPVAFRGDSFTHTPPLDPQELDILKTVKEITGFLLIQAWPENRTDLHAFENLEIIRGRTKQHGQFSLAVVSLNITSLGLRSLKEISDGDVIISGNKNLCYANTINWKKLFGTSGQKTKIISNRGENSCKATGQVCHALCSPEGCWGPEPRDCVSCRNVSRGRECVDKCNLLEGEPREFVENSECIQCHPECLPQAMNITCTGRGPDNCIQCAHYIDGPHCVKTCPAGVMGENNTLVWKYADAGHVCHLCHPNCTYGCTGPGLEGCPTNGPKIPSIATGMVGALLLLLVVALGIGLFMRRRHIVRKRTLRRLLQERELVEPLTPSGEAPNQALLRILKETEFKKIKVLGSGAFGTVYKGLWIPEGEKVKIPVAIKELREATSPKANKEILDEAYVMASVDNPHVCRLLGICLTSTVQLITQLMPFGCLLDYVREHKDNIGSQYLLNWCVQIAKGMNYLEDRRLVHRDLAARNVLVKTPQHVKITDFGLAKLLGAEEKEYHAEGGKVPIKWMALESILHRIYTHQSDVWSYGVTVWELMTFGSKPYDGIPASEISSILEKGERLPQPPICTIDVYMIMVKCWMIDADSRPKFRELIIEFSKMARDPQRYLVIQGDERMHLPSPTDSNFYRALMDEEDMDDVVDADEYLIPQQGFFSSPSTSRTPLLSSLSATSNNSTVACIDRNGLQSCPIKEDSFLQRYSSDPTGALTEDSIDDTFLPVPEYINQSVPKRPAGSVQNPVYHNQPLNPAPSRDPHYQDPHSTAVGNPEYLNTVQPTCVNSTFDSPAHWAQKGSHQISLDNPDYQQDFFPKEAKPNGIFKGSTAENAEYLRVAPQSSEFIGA

[4] = target: Proto-oncogene tyrosine-protein kinase Src (Homo sapiens, UniProt P12931); experiment: Inhibition of human wild type partial length Src kinase (L240 to L536 residues) expressed in bacterial expression system by KINOMEscan analysis
Sequence of Proto-oncogene tyrosine-protein kinase Src (P12931 2-536 limits assumed): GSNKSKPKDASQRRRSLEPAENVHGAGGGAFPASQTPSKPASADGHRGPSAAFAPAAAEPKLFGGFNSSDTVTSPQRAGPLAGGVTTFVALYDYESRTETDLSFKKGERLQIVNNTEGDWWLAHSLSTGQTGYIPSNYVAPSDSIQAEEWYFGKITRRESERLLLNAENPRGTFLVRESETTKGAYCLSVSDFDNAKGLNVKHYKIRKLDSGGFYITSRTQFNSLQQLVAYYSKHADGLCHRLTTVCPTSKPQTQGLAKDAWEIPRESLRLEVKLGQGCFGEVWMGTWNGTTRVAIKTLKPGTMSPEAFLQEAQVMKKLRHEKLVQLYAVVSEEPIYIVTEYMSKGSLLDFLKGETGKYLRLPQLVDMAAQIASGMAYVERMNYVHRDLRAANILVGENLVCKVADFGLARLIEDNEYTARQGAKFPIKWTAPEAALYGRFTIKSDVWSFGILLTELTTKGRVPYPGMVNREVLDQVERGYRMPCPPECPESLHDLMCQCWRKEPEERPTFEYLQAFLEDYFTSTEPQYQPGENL

[5] = system: Epidermal growth factor receptor (Homo sapiens), P00533 [UNDEFINED MUTATION]; experiment: Inhibition of EGFR exon del19 mutant in human HCC827 cells assessed as inhibition of EGF-induced EGFR phosphorylation at Tyr1068 residue at 1 uM pretreated with compound for 4 hrs followed by incubation with EGF for 10 mins by western blot analysis; assay type: cell-based; conditions: time 250.0 min
Sequence of Epidermal growth factor receptor (Homo sapiens), P00533 [UNDEFINED MUTATION] (P00533 whole entry, looked up, stated change not applied): as the sequence (P00533 whole entry, the tested form may be a part) above

[6] = target: T2, Epidermal growth factor receptor; experiment: Inhibition of wild type EGFR in human A549 cells assessed as inhibition of EGF-induced ERK-1/2 phosphorylation at 10 uM pretreated with compound for 4 hrs followed by incubation with EGF for 10 mins by western blot analysis; assay type: toxicity, cell-based; conditions: a549, 4.167 h, time 250 min
[7] = target: T2, Epidermal growth factor receptor; experiment: Inhibition of wild type EGFR in human A-431 cells assessed as inhibition of EGF-induced EGFR phosphorylation at Tyr1068 residue at 0.1 to 10 uM pretreated with compound for 4 hrs followed by incubation with EGF for 10 mins by western blot analysis; assay type: toxicity, cell-based; conditions: a-431, 4.167 h, dose 0.1-10 µM, time 250 min
NCI-H1975 [8] = experiment: Induction of apoptosis in human NCI-H1975 cells assessed as induction of PARP cleavage pretreated with compound for 4 hrs followed by incubation with EGF for 10 mins by western blot analysis; assay type: functional, cell-based; conditions: dose 0.1-10 µM, time 250.0 min
A549 [9] = experiment: Induction of apoptosis in human A549 cells assessed as induction of PARP cleavage at 0.1 to 10 uM pretreated with compound for 4 hrs followed by incubation with EGF for 10 mins by western blot analysis; assay type: toxicity, cell-based; conditions: a549, 4.167 h, dose 0.1-10 µM, time 250 min
NCI-H1975 [10] = experiment: Induction of apoptosis in human NCI-H1975 cells assessed as increase in caspase-3/7 activity at 0.1 to 10 uM incubated for 24 hrs by Caspase-Glo reagent based luminescence analysis; assay type: functional, cell-based; conditions: dose 0.1-10 µM
A549 [11] = experiment: Induction of apoptosis in human A549 cells assessed as increase in caspase-3/7 activity at 0.1 to 10 uM incubated for 24 hrs by Caspase-Glo reagent based luminescence analysis; assay type: toxicity, cell-based; conditions: a549, 24 h, dose 0.1-10 µM
NCI-H1975 [12] = experiment: Antitumor activity against human NCI-H1975 cells xenografted in BALB/c mouse assessed as tumor regression at 5 to 10 mg/kg/day, ip; assay type: functional, organism-based; conditions: dose 5-10 mg/kg/day
[13] = Toxicity in BALB/c mouse xenografted with human NCI-H1975 cells assessed as change in liver morphological changes at 5 to 20 mg/kg/day, ip by hematoxylin-eosin staining based analysis; assay type: organism-based; conditions: in vivo, dose 5-20 mg/kg/day
[14] = Toxicity in BALB/c mouse xenografted with human NCI-H1975 cells assessed as change in kidney morphological changes at 5 to 20 mg/kg/day, ip by hematoxylin-eosin staining based analysis; assay type: organism-based; conditions: in vivo, dose 5-20 mg/kg/day
Mus musculus [15] = experiment: In vivo inhibition of EGFR L858R/T790M mutant in ip dosed NCI-H1975 cells xenografted BALB/c mouse assessed as inhibition of AKT phosphorylation at Ser473 residue in tumor by immunoblot analysis; assay type: functional, organism-based; conditions: dose 5-20 mg/kg/day
Mus musculus [16] = experiment: In vivo inhibition of EGFR L858R/T790M mutant in NCI-H1975 cells xenografted BALB/c mouse assessed as inhibition of EGFR phosphorylation at Tyr1068 residue in tumor at 20 mg/kg/day, ip by immunoblot analysis; assay type: functional, organism-based
Mus musculus [17] = experiment: In vivo inhibition of EGFR L858R/T790M mutant in NCI-H1975 cells xenografted BALB/c mouse assessed as inhibition of AKT phosphorylation at Ser473 residue at 5 to 20 mg/kg/day, ip in tumor by immunohistochemistry; assay type: functional, organism-based; conditions: dose 5-20 mg/kg/day
[18] = system: Epidermal growth factor receptor (Homo sapiens), P00533 [L858R,T790M]; experiment: Inhibition of EGFR L858R/T790M mutant in N-(3-((6-Fluoro-2-((4-(4-methylpiperazin-1-yl)phenyl)amino)quinazolin-4-yl)amino)phenyl)acrylamide-resistant human NCI-H1975 cells assessed as inhibition of EGF-induced AKT phosphorylation at Ser473 residue pretreated with compound and ACK1 inhibitor, Dasatinib for 4 hrs followed by incubation with EGF for 10 mins by western blot analysis; assay type: cell-based; conditions: time 250.0 min
Sequence of Epidermal growth factor receptor (Homo sapiens), P00533 [L858R,T790M] (P00533 whole entry T790M/L858R, looked up): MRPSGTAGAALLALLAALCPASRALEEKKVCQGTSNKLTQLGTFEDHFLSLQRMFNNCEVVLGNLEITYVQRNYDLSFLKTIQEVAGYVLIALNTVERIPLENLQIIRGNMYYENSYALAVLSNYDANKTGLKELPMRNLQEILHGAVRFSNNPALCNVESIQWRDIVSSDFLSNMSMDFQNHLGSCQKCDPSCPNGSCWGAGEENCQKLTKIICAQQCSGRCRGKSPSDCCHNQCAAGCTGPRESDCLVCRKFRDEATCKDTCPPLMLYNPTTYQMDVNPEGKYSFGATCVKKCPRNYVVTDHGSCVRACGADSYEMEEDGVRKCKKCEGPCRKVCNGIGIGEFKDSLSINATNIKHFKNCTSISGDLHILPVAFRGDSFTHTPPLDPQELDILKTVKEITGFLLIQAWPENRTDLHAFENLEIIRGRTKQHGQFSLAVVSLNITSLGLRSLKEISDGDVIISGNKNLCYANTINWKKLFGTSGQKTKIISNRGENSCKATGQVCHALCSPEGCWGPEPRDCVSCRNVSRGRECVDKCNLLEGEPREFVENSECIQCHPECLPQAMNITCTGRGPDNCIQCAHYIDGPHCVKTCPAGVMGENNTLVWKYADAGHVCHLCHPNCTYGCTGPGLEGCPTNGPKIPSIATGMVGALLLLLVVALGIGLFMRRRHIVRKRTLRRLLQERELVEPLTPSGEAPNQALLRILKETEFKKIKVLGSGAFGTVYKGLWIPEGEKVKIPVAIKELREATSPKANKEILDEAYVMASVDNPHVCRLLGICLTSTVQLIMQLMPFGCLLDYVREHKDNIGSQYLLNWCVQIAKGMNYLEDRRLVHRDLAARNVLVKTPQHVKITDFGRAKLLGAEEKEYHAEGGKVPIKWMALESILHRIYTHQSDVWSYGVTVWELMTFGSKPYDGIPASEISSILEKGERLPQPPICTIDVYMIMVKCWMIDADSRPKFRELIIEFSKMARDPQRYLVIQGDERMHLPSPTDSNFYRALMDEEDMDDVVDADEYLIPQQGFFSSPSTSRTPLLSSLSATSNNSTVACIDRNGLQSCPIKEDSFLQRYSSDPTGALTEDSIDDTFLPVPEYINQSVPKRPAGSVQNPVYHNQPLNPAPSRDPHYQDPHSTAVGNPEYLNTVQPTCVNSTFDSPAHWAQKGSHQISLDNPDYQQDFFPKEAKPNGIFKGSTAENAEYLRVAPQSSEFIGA

NCI-H1975 [19] = experiment: Antitumor activity against N-(3-((6-Fluoro-2-((4-(4-methylpiperazin-1-yl)phenyl)amino)quinazolin-4-yl)amino)phenyl)acrylamide-resistant human NCI-H1975 cells xenografted in BALB/c mouse assessed as inhibition of tumor growth at 20 mg/kg/day, ip; assay type: functional, organism-based
NCI-H1975 [20] = experiment: Antitumor activity against N-(3-((6-Fluoro-2-((4-(4-methylpiperazin-1-yl)phenyl)amino)quinazolin-4-yl)amino)phenyl)acrylamide-resistant human NCI-H1975 cells xenografted in BALB/c mouse assessed as inhibition of tumor volume at 20 mg/kg/day, ip in presence of ACK1 inhibitor, dasatinib; assay type: functional, organism-based
Mus musculus [21] = experiment: In vivo inhibition of EGFR L858R/T790M mutant in N-(3-((6-Fluoro-2-((4-(4-methylpiperazin-1-yl)phenyl)amino)quinazolin-4-yl)amino)phenyl)acrylamide-resistant human NCI-H1975 cells xenografted BALB/c mouse assessed as inhibition of EGFR phosphorylation at Tyr1068 residue in tumor at 20 mg/kg/day, ip in presence of ACK1 inhibitor, dasatinib by immunoblot analysis; assay type: functional, organism-based

With `C=CC(=O)Nc1cc(Nc2nccc(-c3cn(C)c4ccccc34)n2)c(OC)cc1N(C)CCN(C)C` [OSIMERTINIB] the Activity (NCI-H1975 [1]) was “Active”.

With `C=CC(=O)Nc1cccc(Nc2nc(Nc3ccc(N4CCN(C)CC4)cc3)nc3ccc(F)cc23)c1` the Activity [2] was 14%, the IC50 [3] was 1290 nM and the IC50 [4] was 603 nM. The inhibition [5] was “Active”, the “inhibition (INH)” value [6] was “Not Active” and the “inhibition (INH)” value [7] was “Not Active”. For the same molecule, the Activity (NCI-H1975 [8]) was “Dose-Dependent Effect”, the Activity (A549 [9]) was “Non-Toxic” and the Activity (NCI-H1975 [10]) was “Active”. The Activity (A549 [11]) was “Non-Toxic”, the Activity (NCI-H1975 [12]) was “Active” and the Activity [13] was “Non-Toxic”. For the same molecule, the Activity [14] was “Non-Toxic”, the inhibition (Mus musculus [15]) was “Dose-Dependent Effect” and the inhibition (Mus musculus [16]) was “Active”. For the same molecule, the inhibition (Mus musculus [17]) was “Active”, the inhibition [18] was “Active” and the Activity (NCI-H1975 [19]) was “inactive”. The Activity (NCI-H1975 [20]) was “Active” and the inhibition (Mus musculus [21]) was “Active”.
